Results reported in publication PMC4865845, “A human genome-wide loss-of-function screen identifies effective chikungunya antiviral drugs” (Nature Communications, 2016).

tested on: CHIKV; format: cell-based, chikungunya virus

Row | Substance | Score_si4 | Score_si1 | Score_si3 | Score_si2
1 | Hs_PTPN6_5 (sense CCGGAACAAATGCGTCCCATA; chemistry not given here) | 1.05 | – | – | –
2 | Hs_PTX3_2 (sense AAGAAAGAAACTCACACTTAA; chemistry not given here) | – | 1.48 | – | –
3 | Hs_PTX3_3 (sense AAAGGGATTTGTATTAATTTA; chemistry not given here) | – | – | 1.09 | –
4 | Hs_RAB3D_1 (sense CAGGCCCTGTTTAGCTGTTTA; chemistry not given here) | – | 1.76 | – | –
5 | Hs_RAB3D_3 (sense CTGGAACTATGGACCACATTA; chemistry not given here) | 0.77 | – | – | –
6 | Hs_RAB3D_4 (sense AAGCAAGTTCTTGCCCAATCA; chemistry not given here) | – | – | – | 1.56
7 | Hs_RAB3D_5 (sense TCCGTGGTGCCTTCTAGCTTA; chemistry not given here) | – | – | 0.91 | –
8 | Hs_RAD51L3_2 (sense CTCACTCTCTGTAAGCATATA; chemistry not given here) | – | – | 0.7 | –
9 | Hs_RAD51L3_4 (sense CCCAGTAACGCCTGCTGTTTA; chemistry not given here) | 0.33 | – | – | –
10 | Hs_RAD51L3_5 (sense CTGGAAGAGGTAGCTCAGAAA; chemistry not given here) | – | 2.71 | – | –
11 | Hs_RARSL_3 (sense CACAGGAGTCTTCCTACAGTA; chemistry not given here) [reference compound] | – | -2.94 | – | –
12 | Hs_RARSL_4 (sense CCAGCTTTCCAGAGTGTTGAA; chemistry not given here) [reference compound] | – | – | -1.26 | –
13 | Hs_RARSL_6 (sense TAGATCGAATGGACAAGTATA; chemistry not given here) [reference compound] | – | – | – | -1.49
14 | Hs_RASL11B_2 (sense ATGCTTTGGCTTAAACTGTAA; chemistry not given here) | – | 2.53 | – | –
15 | Hs_ROCK1_1 (sense ACGGTTAGAACAAGAGGTAAA; chemistry not given here) | 0.5 | – | – | –
16 | Hs_ROCK1_3 (sense CAGATAAAGATCACACTGTTA; chemistry not given here) | – | – | 0.95 | –
17 | Hs_ROCK1_9 (sense AACGGTTAGAACAAGAGGTAA; chemistry not given here) | – | 1.18 | – | –
18 | Hs_RORC_2 (sense TAGGATGTGCCGGGCCTACAA; chemistry not given here) | – | 1.28 | – | –
19 | Hs_RORC_3 (sense CCGGGCCTACAATGCTGACAA; chemistry not given here) | 0.9 | – | – | –
20 | Hs_RPS6KC1_1 (sense CCGGGTTGTTTCACGAAGAAA; chemistry not given here) [reference compound] | – | – | – | -1.09
21 | Hs_RPS6KC1_3 (sense ACCCTGATGCTGTATAATGTA; chemistry not given here) [reference compound] | – | -2.87 | – | –
22 | Hs_RRBP1_1 (sense CACGTAGAGGATGGTGACATA; chemistry not given here) | – | – | – | 1.82
23 | Hs_RRBP1_3 (sense CTGGCTGCAGGTGAAAGGAAA; chemistry not given here) | 1.53 | – | – | –
24 | Hs_RRBP1_4 (sense AAGAGATTGTAGAGAAGCTAA; chemistry not given here) | – | – | 1.79 | –
25 | Hs_RTN2_1 (sense TTGGATTTACACTGTAATAAA; chemistry not given here) | 0.49 | – | – | –
26 | Hs_RTN2_2 (sense GAGCTTGGATTTACACTGTAA; chemistry not given here) | – | 2.8 | – | –
27 | Hs_RXRA_1 (sense TTCGTGTAAGCAAGTACATAA; chemistry not given here) | – | 2.2 | – | –

Row | Substance | Score_si4 | Score_si1 | Score_si3 | Score_si2
28 | Hs_RXRA_3 (sense TCCGTACGATTGTCTCTGAAA; chemistry not given here) | 0.81 | – | – | –
29 | Hs_RXRA_4 (sense CTCATCGGCCTTGTAGTTGTA; chemistry not given here) | – | – | – | 1.74
30 | Hs_SAFB_1 (sense ACGGACTGTAGTAATGGATAA; chemistry not given here) | – | – | 0.86 | –
31 | Hs_SAFB_2 (sense AAGGTGGTAATCCTGACGAAA; chemistry not given here) | – | – | – | 0.95
32 | Hs_SAFB_3 (sense CTGCCATATTGTAGCTCAATA; chemistry not given here) | – | 1.4 | – | –
33 | Hs_SARS_2 (sense CTGATGAAACCATGTAATAAA; chemistry not given here) | – | 2.9 | – | –
34 | Hs_SCLY_1 (sense CTGACTCAGCTTATACCTTAA; chemistry not given here) | – | – | 1.21 | –
35 | Hs_SCLY_2 (sense CAGAAACTAAATTAACGAATA; chemistry not given here) | 1.04 | – | – | –
36 | Hs_SDFR1_8 (sense CAGGTATATACAGCATATAAA; chemistry not given here) [reference compound] | – | -2.41 | – | –
37 | Hs_SDFR1_9 (sense CTGGTACATAAAGATGAGTAA; chemistry not given here) [reference compound] | – | – | -1.41 | –
38 | Hs_SDFR1_10 (sense ACAGGTATATACAGCATATAA; chemistry not given here) [reference compound] | – | – | – | -2.32
39 | Hs_SDFR1_11 (sense TACATAAAGATGAGTAATATA; chemistry not given here) [reference compound] | -1.37 | – | – | –
40 | Hs_SEC61B_1 (sense TTTAATTCACTTATACTGAAA; chemistry not given here) | – | 1.55 | – | –
41 | Hs_SEC61B_2 (sense CCCAACATTTCTTGGACCAAA; chemistry not given here) | – | – | 1.09 | –
42 | Hs_SHC2_10 (sense GCGGTTTGTCCTACAAGTTTA; chemistry not given here) | 0.47 | – | – | –
43 | Hs_SHC2_11 (sense TCGGTGCTGGTGGAACAGAAA; chemistry not given here) | – | 2.36 | – | –
44 | Hs_SIMP_1 (sense CAGGGAGACATTAGATCACAA; chemistry not given here) [reference compound] | -0.7 | – | – | –
45 | Hs_SIMP_2 (sense CTGGCTTGTTAGGATATATAA; chemistry not given here) [reference compound] | – | -2.63 | – | –
46 | Hs_SIN3A_5 (sense GAGCGTGTAAGCAAGCGTCTA; chemistry not given here) | – | 2.49 | – | –
47 | Hs_SLC6A19_2 (sense CTCGGTGATTGTGTCCATCAT; chemistry not given here) | – | 2.5 | – | –
48 | Hs_SLC6A19_4 (sense CCAGAAGATCTCCTACCCGAA; chemistry not given here) | – | – | – | 0.84
49 | Hs_SREBF2_1 (sense ACCCATAATATCATTGAGAAA; chemistry not given here) | 1.37 | – | – | –
50 | Hs_SREBF2_3 (sense CTGCAATTTGTCAGTAATCAA; chemistry not given here) | – | 2.21 | – | –
51 | Hs_SREBF2_4 (sense AAGGCCATTGATTACATCAAA; chemistry not given here) | – | – | 1.41 | –
52 | Hs_SSP411_1 (sense ATGGCCTTGCATACCCTGAAA; chemistry not given here) | – | 2.33 | – | –
53 | Hs_SULF1_1 (sense TCCGTCGAATTTGAAGGTGAA; chemistry not given here) [reference compound] | – | -2.1 | – | –
54 | Hs_SULF1_3 (sense CTGGTGTTTGCGTACAGTTAA; chemistry not given here) [reference compound] | -0.77 | – | – | –
